Source: patent US6982273B1, “Compositions and methods containing bioavailable Se-methyl-L-selenocysteine for human and veterinary use” (Sami Labs Ltd., priority 2002, dated 2006)

What was measured:
[1] = system: dimethyl-benz(a)anthracene-induced mammary tumor; details: 1–2 ppm Se in diet from 1 week before DMBA until sacrifice; order of efficacy: Se-methylselenocysteine > selenite > selenocysteine > dimethyl selenoxide; cited from earlier work
glutathione peroxidase = details: selenium-depleted animals; efficiency: Se-methylselenocysteine > dimethyl selenoxide > trimethylselenonium; cited from earlier work
[2] = system: rats with macrophage associated liver injury and endotoxemia; experiment: Suppression of macrophage associated liver injury and endotoxemia (P. acnes + LPS) in rats; format: in vivo, rat; details: Se-methyl-L-selenocysteine 4 mg/kg, composition 2 mg/kg
Protocol: The composition used consisted of Se-methyl-L-selenocysteine of the parent application to which piperine from black pepper fruit was added such that the animals received a co-administered daily dose of 5 mg of piperine.
Study Design: Male Wistar King A rats (200–250 g) were maintained on a basal pelleted diet and water ad libitum under normal temperature and lighting conditions. All rats received an injection of 40 mg/kg body weight of heat killed Propionibacterium acnes (ATCC 11827), 20 mg/ml suspension in saline via the tail vein on day 1. Seven days later they received an intravenous injection of 350 mcg/kg body weight of lipopolysaccharide (LPS, Difco Laboratories, MI, USA), 200 mcg/ml solution in saline). 5 rats received a daily dose of 4 mg/kg body weight of Se-methyl-L-selenocysteine and 5 rats received 2 mg/kg body weight of the composition of the invention, orally for 3 days in the feed, 4 control rats received no supplementation, prior to induction of liver injury, 4 normal controls were not subjected to liver injury. Serum levels of TNF-α were measured. TNF-α is thought to be the principal mediator of the deleterious effects of LPS.

| SMILES | chemopreventive activity (tumor inhibition) [1] | ability to restore glutathione peroxidase activity (glutathione peroxidase) | also measured |
| --- | --- | --- | --- |
| O=[Se](O)O [selenite] | tumor inhibition |  |  |
| C[Se+](C)C [trimethylselenonium] |  | fully replete |  |
| N[C@@H](C[SeH])C(=O)O [selenocysteine] | tumor inhibition |  |  |
| C[Se](C)=O [dimethyl selenoxide] | tumor inhibition | fully replete |  |
| C[Se]C[C@H](N)C(=O)O [Se-methyl-L-selenocysteine] | tumor inhibition | fully replete | Catalase ([2]; oral 3 days): 31.16 ± 3.95 micromole of H2O2 consumed/min; Glutathione (GSH) ([2]; oral 3 days): 7.43 ± 0.69 mcg/mg protein; Glutathione peroxidase ([2]; oral 3 days): 8.13 ± 0.71 micromole of GSH oxidized/min/; Serum Lipid peroxides ([2]; oral 3 days): 2.71 ± 0.32 MDA formed/mg protein; Superoxide dismutase ([2]; oral 3 days): 4.91 ± 0.48 Units/min/mg protein; TNF-alpha (serum) ([2]; oral 3 days): 81 ± 6 ng/mL; Survival rate ([2]; oral in feed 3 days before injury, survivors/n): 3/5 |
